Read-outs that look alike come from different tables or passages of the source.
Columns and labels:
[1] = test system: TF1.8 cells; assay: TF1.8 bioassay of IL-4 mutants (support of proliferation); assay type: cell-based, human; conditions: IL-4 wt and mutants, TF1.8 cells
Protocol: TF-1.8 cells have been transfected with the firefly luciferase gene contained in the expression vector, pPGK-puromycin-luciferase (Coombe et al., 1998, Supra). The positive transfectants are cloned to produce a line with good luciferase expression. The proliferation assays are carried out in 96-well microplates suitable for such assays Falcon). The wells are flat bottomed, with white sides and a clear bottom. Cells are washed to remove any cytokine in the growth medium and then resuspended in RPMI/5% w/v FCS. The cells are counted with a Coulter Multisizer (Coulter Electronics, England) and routinely 2.5×10^4 cells are added to microplate wells that contain either no IL-4 (negative control) or various dilutions of IL-4. When the effect of HLGAGs, chondroitin sulfate C, or the heparin fractions of a particular length, or heparin fragments of a particular length and structure is to be measured, the wells also contain various concentrations of these molecules.
The cells proliferate for 48 hours at 37° C. in a humidified atmosphere, after which the luciferase activity is measured by the addition of 50 μl of luciferase substrate buffer (50 mm Tris-HCl, pH 7.8, 15 mM MgSO4, 33.3 mM DTT, 0.1 mM EDTA, 0.5 mM Na-luciferin, 0.5 mM ATP, 0.25 mM lithium Co A and 0.5% v/v Triton X-100). […] Light emissions are detected on a Victor 1420 Multilabel counter (Wallac, Turku, Finland). […]

[2] = BIAcore binding of proteins to heparin immobilised on a biosensor chip; conditions: for binding to immobilized heparin: recombinant proteins, FIG. 2
Source text: This technology uses the optical phenomenon of surface plasmon resonance to monitor physical interactions between molecules. Passing the protein solution over a sensor surface to which the ligand is coupled monitors the real-time binding of proteins to an immobilized ligand. Detection is achieved by measuring refractive index changes very close to the sensor surface. When the refractive index is altered, the angle at which plasmon resonance occurs changes and this change directly correlates with the amount of protein interacting with the surface. A BIAcore 2000 is conveniently used. It is very sensitive and its microfluidics ensures that only small amounts of material are required.
The HLGAGs are immobilized on the biosensor chip. Intact HLGAGs are biotinylated via amino groups, or reducing termini modified with ammonia by reductive amination, using sulfo-NHS-biotin. Biotinylated HLGAGs are immobilized on streptavidin-coupled sensor chips. Solutions containing proteins of interest are injected over the sensor chip surface, and the binding is measured in real time (Fernig, In: Proteoglycan protocols, Ed. R.V. Iozzo, Humana Press, Totowa, N.J., USA, 2001). […] In all cases binding is specific, as there is little or no interaction with sensor chips lacking heparin with any of the targeted proteins, and binding is inhibited by exogenous heparin. Initial analyzes indicate that the binding of rhIL-5 to heparin has affinity constants of the order from 50-5×10^−9. Because unsubstituted amines are variably present in heparan sulfates from different tissues, an alternative method of biotin labeling is recommended for the heparan sulfate chip. In this case, heparan sulfate is labeled via oxidized cis-diol residues using biotinyl-LC-hydrazine. […]
Binding experiments with these proteins has indicated to which PECAM-1 domains heparin binds. Two binding assays were used: the assay where PECAM-1 is reacted with a BIAcore biosensor chip to which heparin has been immobilised and the second assay is the binding of PECAM-1 to heparan sulfate on the cell surface.
Site directed mutagenesis was performed on IL-4. Basic residues within the proposed heparin binding site were changed to alanine and the proteins expressed using the baculovirus expression system. The one exception was R88 which was changed to valine. Insect cell expressed proteins were purified on an anti-IL-4 affinity column and checked for purity by SDS-PAGE and silver staining. Mutant IL-4 proteins were examined for their ability to bind heparin immobilised on a biosensor chip and binding assessed using a BIAcore 2000.

Substance: WT: recombinant human wild-type IL-4
- Conc needed for 50% growth, average [1]: 0.99 ng/mL
- Kd ([2]; FIG. 24, several IL-4 concentrations, read-out: estimated KD of wild-type IL-4 binding to heparin): 0.005 to 0.01 µM
- ka ([2]; IL-4 WT and mutants binding to heparin, in M-1s-1 (unit assumed)): 5.68E+04
- kd ([2]; IL-4 WT and mutants binding to heparin, in s-1 (unit assumed)): 2.88E−03
- Kd ([2]; IL-4 WT and mutants binding to heparin, read-out: KD): 0.0527 µM
- binding to immobilized heparin [2]: readily bind to heparin

Substance: flag-PECAM-1: extracellular domain of PECAM-1 fused to the flag affinity tag, Cos-7 expressed
- binding of PECAM-1 constructs to immobilised heparin [2]: can bind to the heparin chip
- binding to immobilized heparin [2]: readily bind to heparin

Substance: rhIL-5: baculovirus expressed human IL-5
- binding to immobilized heparin [2]: readily bind to heparin

Substance: CypA: E. coli expressed Cyclophilin A
- binding to immobilized heparin [2]: readily bind to heparin
